Measurements from publication PMC5559490, “Synthesis of Saccharumoside-B analogue with potential of antiproliferative and pro-apoptotic activities” (Scientific Reports, 2017).
Where two headings read alike, the source gives them in different places.

How the values were obtained:
[1] = system: MIA PaCa-2 pancreatic cancer cells; assay: MTT antiproliferative assay, MIA PaCa-2; format: cell-based; conditions: Homo sapiens
[2] = system: DU145 prostate cancer cells; assay: MTT antiproliferative assay, DU145; format: cell-based; conditions: Homo sapiens
[3] = system: MCF-7 breast cancer cells; assay: MTT antiproliferative assay, MCF-7; format: cell-based; conditions: Homo sapiens
[4] = system: CaCo-2 colon cancer cells; assay: MTT antiproliferative assay, CaCo-2; format: cell-based; conditions: Homo sapiens
HL-60 leukemia cells = assay: MTT antiproliferative assay, HL-60; format: cell-based, human; conditions: Homo sapiens
[5] = system: HeLa cervical cancer cells; assay: MTT antiproliferative assay, HeLa; format: cell-based; conditions: Homo sapiens, read-out: IC50 HeLa Cervical
[6] = system: MCF-10A mammary epithelial cells; assay: MTT assay on normal MCF-10A cells; format: cell-based; conditions: Homo sapiens, 48 h, read-out: IC50 MCF-10A Breast (normal cell line)
[7] = system: human peripheral blood mononuclear cells (PBMC); assay: MTT assay on normal PBMC; format: cell-based; conditions: 48 h, read-out: IC50 PBMC (normal cells)
[8] = MIA PaCa-2, MTT assay, cancer cell line, mean of three independent experiments ± S.E.M., read-out: IC50 MIA PaCa-2 Pancreatic
[9] = DU-145, MTT assay, cancer cell line, mean of three independent experiments ± S.E.M., read-out: IC50 DU145 Prostate
[10] = MCF7, MTT assay, cancer cell line, mean of three independent experiments ± S.E.M., read-out: IC50 MCF-7 Breast
[11] = Caco-2, MTT assay, cancer cell line, mean of three independent experiments ± S.E.M., read-out: IC50 CaCo-2 Colon
[12] = HL-60, MTT assay, cancer cell line, mean of three independent experiments ± S.E.M., read-out: IC50 HL-60 Leukemia
[13] = MTT assay, cancer cell line, mean of three independent experiments ± S.E.M.

| Compound | IC50 [1, 8] [µM] | IC50 [2, 9] [µM] | IC50 [3, 10] [µM] | IC50 [4, 11] [µM] | IC50 (HL-60 leukemia cells; [12]) [µM] | IC50 [5, 13] [µM] | IC50 ([6]; MTT assay, normal cells) [µM] | IC50 ([7]; MTT assay, normal cells) [µM] | melting point [°C] | IC50 ([1]; MIA PaCa-2, read-out: IC50 MIA PaCa-2 Pancreatic) [µM] | IC50 ([2]; DU-145, read-out: IC50 DU145 Prostate) [µM] | IC50 ([3]; MCF7, read-out: IC50 MCF-7 Breast) [µM] | IC50 ([4]; Caco-2, read-out: IC50 CaCo-2 Colon) [µM] | IC50 (HL-60 leukemia cells; HL-60, read-out: IC50 HL-60 Leukemia) [µM] | IC50 [5] [µM] | IC50 [6] [µM] | IC50 [7] [µM] |
| --- | --- | --- | --- | --- | --- | --- | --- | --- | --- | --- | --- | --- | --- | --- | --- | --- | --- |
| COc1cc(CO)ccc1OC1OC(COC(=O)c2ccccc2)C(O)C(O)C1O (centres unmarked) [Compound 9b, (6-(4-(hydroxymethyl)-2-methoxyphenoxy)-tetrahydro-3,4,5-trihydroxy-2H-pyran-2-yl)methyl benzoate] | 39.3 ± 1.42 | 37.3 ± 2.54 | 26.4 ± 0.96 | 47.3 ± 1.62 | 22.8 ± 1.3 | 36.7 ± 2.31 | > 100 | > 100 | 187 to 189 | – | – | – | – | – | – | – | – |
| COc1cc(CO)ccc1OC1OC(COC(=O)c2ccc(C)cc2)C(O)C(O)C1O (centres unmarked) [Compound 9c, (6-(4-(hydroxymethyl)-2-methoxyphenoxy)-tetrahydro-3,4,5-trihydroxy-2H-pyran-2-yl)methyl 4-methylbenzoate] | 13.3 ± 0.25 | 12.4 ± 0.47 | 9.34 ± 0.48 | 13.7 ± 0.63 | 12.5 ± 0.81 | 14.2 ± 0.68 | > 100 | > 100 | 228 to 230 | – | – | – | – | – | – | – | – |
| COc1cc(OC)cc(C(=O)OCC2OC(Oc3ccc(CO)cc3OC)C(O)C(O)C2O)c1 (centres unmarked) [Compound 9d, (6-(4-(hydroxymethyl)-2-methoxyphenoxy)-tetrahydro-3,4,5-trihydroxy-2H-pyran-2-yl)methyl 3,5-dimethoxybenzoate] | 44.6 ± 2.67 | 42.5 ± 1.51 | 28.3 ± 1.47 | 37.4 ± 1.65 | 25.2 ± 1.92 | 39.5 ± 2.43 | > 100 | > 100 | 199 to 201 | – | – | – | – | – | – | – | – |
| COc1cc(CO)ccc1OC1OC(COC(=O)c2cc(OC)c(OC)c(OC)c2)C(O)C(O)C1O (centres unmarked) [Compound 9e, (6-(4-(hydroxymethyl)-2-methoxyphenoxy)-tetrahydro-3,4,5-trihydroxy-2H-pyran-2-yl)methyl 3,4,5-trimethoxybenzoate] | 36.3 ± 1.58 | 49.4 ± 1.72 | 33.4 ± 0.76 | 43.5 ± 1.87 | 22.2 ± 1.32 | – | > 100 | > 100 | 168 to 170 | – | – | – | – | – | – | – | – |
| COc1cc(CO)ccc1OC1OC(COC(=O)c2ccccc2I)C(O)C(O)C1O (centres unmarked) [Compound 9g, (6-(4-(hydroxymethyl)-2-methoxyphenoxy)-tetrahydro-3,4,5-trihydroxy-2H-pyran-2-yl)methyl 2-iodobenzoate] | 23.4 ± 1.53 | 38.32 ± 0.37 | 28.9 ± 0.47 | 43.9 ± 2.52 | 33.5 ± 1.45 | 41.9 ± 3.15 | > 100 | > 100 | 128 to 130 | – | – | – | – | – | – | – | – |
| COc1cc(CO)ccc1OC1OC(COC(=O)c2cccnc2)C(O)C(O)C1O (centres unmarked) [Compound 9h, (6-(4-(hydroxymethyl)-2-methoxyphenoxy)-tetrahydro-3,4,5-trihydroxy-2H-pyran-2-yl)methyl nicotinate] | 33.9 ± 1.41 | 42.1 ± 1.52 | 33.9 ± 0.48 | 49.04 ± 0.48 | 30.2 ± 1.32 | 35.4 ± 2.2 | > 100 | > 100 | 194 to 196 | – | – | – | – | – | – | – | – |
| COc1cc(CO)ccc1OC1OC(COC(=O)c2cc([N+](=O)[O-])cc([N+](=O)[O-])c2)C(O)C(O)C1O (centres unmarked) [Compound 9i, (6-(4-(hydroxymethyl)-2-methoxyphenoxy)-tetrahydro-3,4,5-trihydroxy-2H-pyran-2-yl)methyl 3,5-dinitrobenzoate] | – | – | – | – | – | – | – | – | 186 to 188 | 34.8 ± 1.93 | 43.6 ± 1.87 | 34.8 ± 0.51 | 47 ± 2.58 | 29.6 ± 0.83 | 38.4 ± 1.53 | > 100 | > 100 |
| COc1cc(CO)cc(OC)c1OC1OC(COC(=O)c2ccccc2)C(O)C(O)C1O (centres unmarked) [Compound 9j, (6-(4-(hydroxymethyl)-2,6-dimethoxyphenoxy)-tetrahydro-3,4,5-trihydroxy-2H-pyran-2-yl)methyl benzoate] | 45.76 ± 0.42 | 36.8 ± 0.59 | 29.4 ± 0.79 | 33.6 ± 1.51 | 25.6 ± 0.94 | 30.4 ± 2.81 | > 100 | > 100 | 180 to 182 | – | – | – | – | – | – | – | – |
| COc1cc(CO)cc(OC)c1OC1OC(COC(=O)c2ccc(C)cc2)C(O)C(O)C1O (centres unmarked) [Compound 9k, (6-(4-(hydroxymethyl)-2,6-dimethoxyphenoxy)-tetrahydro-3,4,5-trihydroxy-2H-pyran-2-yl)methyl 4-methylbenzoate] | 23.9 ± 0.74 | 42.8 ± 0.59 | 22 ± 0.72 | 28.3 ± 1.47 | 18.5 ± 0.78 | 26.6 ± 1.37 | > 100 | > 100 | 201 to 203 | – | – | – | – | – | – | – | – |
| COc1cc(OC)cc(C(=O)OCC2OC(Oc3c(OC)cc(CO)cc3OC)C(O)C(O)C2O)c1 (centres unmarked) [Compound 9l, (6-(4-(hydroxymethyl)-2,6-dimethoxyphenoxy)-tetrahydro-3,4,5-trihydroxy-2H-pyran-2-yl)methyl 3,5-dimethoxybenzoate] | 43.8 ± 1.75 | 49.6 ± 3.59 | 33.8 ± 0.73 | 41.1 ± 1.48 | 31.8 ± 1.58 | 36.3 ± 1.76 | > 100 | > 100 | 131 to 133 | – | – | – | – | – | – | – | – |
| COc1cc(CO)cc(OC)c1OC1OC(COC(=O)c2ccc(F)cc2)C(O)C(O)C1O (centres unmarked) [Compound 9m, (6-(4-(hydroxymethyl)-2,6-dimethoxyphenoxy)-tetrahydro-3,4,5-tri hydroxy-2H-pyran-2-yl)methyl 4-fluorobenzoate] | 47.3 ± 2.54 | 33.8 ± 1.27 | 28.4 ± 0.69 | 35.6 ± 1.46 | 21.8 ± 1.53 | 34.1 ± 1.83 | > 100 | > 100 | 170 to 172 | – | – | – | – | – | – | – | – |
| COc1cc(CO)cc(OC)c1OC1OC(COC(=O)c2ccccc2I)C(O)C(O)C1O (centres unmarked) [Compound 9n, (6-(4-(hydroxymethyl)-2,6-dimethoxyphenoxy)-tetrahydro-3,4,5-tri hydroxy-2H-pyran-2-yl)methyl 2-iodobenzoate] | 26.8 ± 1.25 | 37.9 ± 2.48 | 35 ± 1.52 | 45.2 ± 1.79 | 28.3 ± 1.72 | 32.1 ± 1.35 | > 100 | > 100 | 124 to 126 | – | – | – | – | – | – | – | – |
